Experiment in all cases: area over the GR curve, 72 h; higher = more effect;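 note: Dye Drop or Deep Dye Drop imaging of viable cells in 384-well plates (Hoechst nuclei, LIVE/DEAD dye), nine half-log doses, GR normalized to DMSO controls and time-zero plates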
For test [1], the system named is HTERT_HME1.
The subject of test [2] is HCC1419.
Test [3] relates to HCC1806.
Test [4] deals with SUM149.
Test [5] deals with CAMA1.
Test [6] concerns MCF10A.
Test [7] deals with SUM159.
The subject of test [8] is SUM44PE.
The test system of test [9] is MGH312.
For test [10], the system named is 184A1.
Test [11] concerns SUM185PE.
Test [12] relates to SUM1315.

Take `CCNC(=O)c1noc(-c2cc(C(C)C)c(O)cc2O)c1-c1ccc(CN2CCOCC2)cc1` [Luminespib/NVP-AUY922] (max 1 µM): the “area over the GR curve” value in [1] came out at 0.633 GR; in test [2], 0.641 GR; in test [3], 0.539 GR; in [4] it was 0.754 GR; in test [5] it was 0.535 GR; in test [6] it was 0.613 GR. Also, the “area over the GR curve” value amounted to 0.53 GR in test [7]; 0.804 GR in [8]; 0.962 GR in test [9]; 0.539 GR in test [10]; 0.673 GR in test [11]; 0.606 GR in [12].

As to `COc1ccc2c(c1)[C@]1(C[C@H]1c1ccc3c(/C=C/c4ccc(CN5C[C@@H](C)O[C@@H](C)C5)cc4)n[nH]c3c1)C(=O)N2`, the “area over the GR curve” value was 0.734 GR in test [1]; 0.425 GR in test [2]; 0.94 GR in [3]; 0.672 GR in test [4]; 0.587 GR in [5]; 0.817 GR in test [6]. Further, the “area over the GR curve” value in [7] was 0.629 GR; in test [8] it was 0.898 GR; in test [9] it was 1.19 GR; in [10], 0.668 GR; in test [11], 0.161 GR; in test [12] it was 0.83 GR.

As to `CCc1cncnc1N1CCN(Cc2nc3ccc(C(F)(F)F)cc3[nH]2)CC1` (max 10 µM), the “area over the GR curve” value was 0.117 GR in test [1]; 0.112 GR in test [2]; -0.0429 GR in test [3]; 0.0207 GR in test [4]; 0.0582 GR in test [5]; 0.0475 GR in test [6]. The “area over the GR curve” value in test [7] is 0.0106 GR; in test [8], 0.0041 GR; in [9], -0.0701 GR; in test [10], -0.0012 GR; in test [11], 0.144 GR; in [12], 0.0975 GR.

As for `CC(C)Nc1cc(-c2c[nH]c(C(=O)N[C@H](CO)c3cccc(Cl)c3)c2)c(Cl)cn1` [BVD523] (max 10 µM), the “area over the GR curve” value was found to be 0.443 GR in test [1]; 0.0554 GR in test [2]; 0.0314 GR in test [3]; 0.233 GR in test [4]; 0.241 GR in test [5]; 0.311 GR in [6]. Besides, the “area over the GR curve” value is 0.254 GR in [7]; 0.218 GR in test [8]; -0.0209 GR in test [9]; 0.704 GR in test [10]; -0.0633 GR in test [11]; 0.0786 GR in test [12].

With `CC(=O)Nc1cccc(-n2c(=O)n(C3CC3)c(=O)c3c(Nc4ccc(I)cc4F)n(C)c(=O)c(C)c32)c1` (max 1 µM), the “area over the GR curve” value in [1] turned out to be 0.434 GR; in test [2] it was 0.285 GR; in test [3], 0.104 GR; in [4] it was 0.39 GR; in test [5], 0.169 GR; in test [6], 0.527 GR. Moreover, the “area over the GR curve” value in [7] was 0.347 GR; in [8], 0.186 GR; in test [9], -0.169 GR; in test [10], 0.659 GR; in test [11], -0.0188 GR; in test [12] it was 0.389 GR.

Regarding `CC(=O)c1c(C)c2cnc(Nc3ccc(N4CCNCC4)cn3)nc2n(C2CCCC2)c1=O` (max 3.162 µM), the “area over the GR curve” value in test [1] was determined as 0.259 GR; in [2], 0.208 GR; in test [3] it was 0.146 GR; in test [4], 0.19 GR; in [5] it was 0.353 GR; in [6] it was 0.188 GR. Also, the “area over the GR curve” value is 0.186 GR in test [7]; 0.216 GR in test [8]; -0.129 GR in test [9]; 0.375 GR in [10]; 0.0458 GR in test [11]; 0.33 GR in [12].

Take `COc1cccc2c1C(=O)c1c(O)c3c(c(O)c1C2=O)C[C@@](O)(C(=O)CO)C[C@@H]3O[C@H]1C[C@H](N)[C@H](O)[C@H](C)O1` [Doxorubicin] (max 3.162 µM): the “area over the GR curve” value in [1] stood at 0.836 GR; in test [2], 0.59 GR; in test [3] it was 0.628 GR; in test [4], 0.754 GR; in test [5], 0.843 GR; in [6], 0.655 GR. In addition, the “area over the GR curve” value in test [7] was 0.624 GR; in [8], 0.629 GR; in [9] it was 1.07 GR; in [10], 0.706 GR; in test [11], 0.0881 GR; in test [12], 0.513 GR.

As for `COc1cc([C@@H]2c3cc4c(cc3[C@@H](O[C@@H]3O[C@@H]5CO[C@@H](C)O[C@H]5[C@H](O)[C@H]3O)[C@H]3COC(=O)[C@H]23)OCO4)cc(OC)c1O` [Etoposide] (max 10 µM), the “area over the GR curve” value in test [1] turned out to be 0.542 GR; in [2], 0.32 GR; in test [3], 0.648 GR; in test [4], 0.527 GR; in [5], 0.571 GR; in [6] it was 0.415 GR. Further, the results for the “area over the GR curve” value in test [7] and in test [12] were 0.413 GR and 0.381 GR, respectively.

In the case of `CCC(=O)Nc1ccc(C(=O)Nc2ccc(Nc3ncc4c(n3)N(C)c3ccc(C)cc3C(=O)N4C)cc2)cc1` [FMF-03-145-1], the “area over the GR curve” value in test [1] was found to be 0.44 GR; in test [2] it was 0.261 GR; in [3] it was 1.08 GR; in test [4], 0.462 GR; in test [5], 0.393 GR; in test [6] it was 1.05 GR. Besides, the “area over the GR curve” value in [7] was 0.476 GR; in [8] it was 1.15 GR; in [9] it was 1.28 GR; in [10], 1 GR; in test [11], 0.384 GR; in [12], 0.539 GR.

Turning to `C=CCn1c(=O)c2cnc(Nc3ccc(N4CCN(C)CC4)cc3)nc2n1-c1cccc(C(C)(C)O)n1` [AZD1775] (max 10 µM), the “area over the GR curve” value was 0.441 GR in test [1]; 0.238 GR in test [2]; 0.847 GR in [3]; 0.614 GR in test [4]; 0.0364 GR in [5]; 0.0857 GR in [6]. Further, the “area over the GR curve” value stood at 0.253 GR in test [7]; 0.502 GR in test [8]; 0.334 GR in test [9]; 0.366 GR in test [10]; 0.212 GR in [11]; 1.02 GR in [12].

As for `CC[C@@]1(O)C(=O)OCc2c1cc1n(c2=O)Cc2cc3c(CN(C)C)c(O)ccc3nc2-1` [Topotecan] (max 10 µM), the “area over the GR curve” value in test [1] was 0.873 GR; in [2], 0.99 GR; in test [3], 1.07 GR; in test [4], 0.941 GR; in test [5] it was 1.05 GR; in [6], 0.765 GR. The “area over the GR curve” value in test [7] came out at 0.864 GR; in test [12], 0.769 GR.

As for `N.N.[Cl][Pt][Cl]` [Cisplatin] (max 10 µM), the “area over the GR curve” value in test [1] is 0.297 GR; in test [2], 0.223 GR; in test [3] it was 0.317 GR; in [4], 0.355 GR; in [5], 0.328 GR; in test [6] it was 0.0952 GR. In addition, the “area over the GR curve” value is 0.137 GR in [7] and 0.296 GR in test [12].

Source of the values: the supplement of paper PMC9663587.
